# Measurements reported in patent publication US8461328B2, “Tricyclic heterocyclic compounds, compositions and methods of use thereof” (Genentech, Inc., priority 2010, dated 2013).
# What was measured:
# Type in all cases: biochemical
# [1] = biological target: T1, JAK3 (Homo sapiens, UniProt P52333); test: JAK3 inhibition (Table 4); details: read-out: JAK3 Ki
# T1 construct: made in house; host or cells: SF9 insect cells (baculovirus)
# [2] = biological target: T2, JAK1 (Homo sapiens, UniProt P23458); test: JAK1 inhibition (Table 4); details: read-out: JAK1 Ki
# T2 construct: made in house; host or cells: SF9 insect cells (baculovirus)
# T2 sequence (P23458 852-1154): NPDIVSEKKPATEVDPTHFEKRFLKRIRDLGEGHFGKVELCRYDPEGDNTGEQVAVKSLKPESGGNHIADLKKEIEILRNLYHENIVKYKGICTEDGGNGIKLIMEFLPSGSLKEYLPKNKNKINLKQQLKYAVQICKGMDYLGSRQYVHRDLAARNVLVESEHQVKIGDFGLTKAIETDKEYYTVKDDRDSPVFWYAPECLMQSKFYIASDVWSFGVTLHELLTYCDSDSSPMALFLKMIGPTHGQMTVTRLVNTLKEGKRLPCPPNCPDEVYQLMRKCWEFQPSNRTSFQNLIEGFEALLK
# [3] = biological target: T3, JAK2 (Homo sapiens, UniProt O60674); test: JAK2 inhibition (Table 4); details: read-out: JAK2 Ki
# T3 construct: made in house; host or cells: SF9 insect cells (baculovirus)
# T3 sequence (O60674 812-1132): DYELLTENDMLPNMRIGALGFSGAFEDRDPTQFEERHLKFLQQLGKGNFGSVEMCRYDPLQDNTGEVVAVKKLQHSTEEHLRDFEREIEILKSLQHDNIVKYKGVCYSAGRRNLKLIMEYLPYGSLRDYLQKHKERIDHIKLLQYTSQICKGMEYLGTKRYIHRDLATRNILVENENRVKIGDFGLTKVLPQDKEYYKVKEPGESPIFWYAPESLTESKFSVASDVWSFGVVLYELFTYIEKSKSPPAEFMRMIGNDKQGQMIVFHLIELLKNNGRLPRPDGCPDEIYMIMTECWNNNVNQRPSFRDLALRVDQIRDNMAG
# [4] = biological target: T4, TYK2 (Homo sapiens, UniProt P29597); test: TYK2 inhibition (Table 4)
# T4 construct: made in house; host or cells: SF9 insect cells (baculovirus)
# T4 sequence (P29597 873-1187): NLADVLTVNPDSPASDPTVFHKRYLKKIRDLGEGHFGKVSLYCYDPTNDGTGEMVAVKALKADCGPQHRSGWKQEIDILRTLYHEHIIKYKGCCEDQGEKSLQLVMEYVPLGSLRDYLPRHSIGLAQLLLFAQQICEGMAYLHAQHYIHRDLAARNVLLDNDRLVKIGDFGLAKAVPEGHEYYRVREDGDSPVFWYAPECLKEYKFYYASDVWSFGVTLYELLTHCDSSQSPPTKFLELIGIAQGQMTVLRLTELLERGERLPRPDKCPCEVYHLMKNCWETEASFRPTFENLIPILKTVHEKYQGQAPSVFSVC
# T1 sequence (P52333 783-1124): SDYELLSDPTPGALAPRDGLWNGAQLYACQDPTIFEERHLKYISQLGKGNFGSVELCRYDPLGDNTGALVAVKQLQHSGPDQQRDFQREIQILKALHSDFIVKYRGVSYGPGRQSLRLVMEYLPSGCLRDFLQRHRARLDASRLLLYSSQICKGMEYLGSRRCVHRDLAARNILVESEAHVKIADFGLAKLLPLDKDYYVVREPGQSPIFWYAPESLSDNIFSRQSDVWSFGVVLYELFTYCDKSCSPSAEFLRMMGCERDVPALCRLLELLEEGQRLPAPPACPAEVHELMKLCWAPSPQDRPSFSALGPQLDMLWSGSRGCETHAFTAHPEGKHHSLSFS
SMILES,Ki [1] [nM],Ki [2] [nM],Ki [3] [nM],Ki [4] [nM]
"CCC(COC)n1c(C(C)O)nc2cnc3[nH]ccc3c21 (single isomer, unassigned) [Example 182, 1-[1-(1-Methoxymethyl-propyl)-1,6-dihydro-1,2,3,5,6-tetraaza-as-indacen-2-yl]-ethanol]",154,167,435,955
"Cc1nc2cnc3[nH]ccc3c2n1[C@@H]1CC[C@@H](NC(=O)CC(F)(F)F)C1 [Example 624, 3,3,3-Trifluoro-N-[(1R,3R)-3-(2-methyl-6H-1,2,3,5,6-tetraaza-as-indacen-1-yl)-cyclopentyl]-propionamide]",13.9,2.23,10.2,63
"CC(=O)NCc1nc2cnc3[nH]ccc3c2n1C1CCNCC1 [Example 207, N-(1-Piperidin-4-yl-1,6-dihydro-1,2,3,5,6-tetraaza-as-indacen-2-ylmethyl)-acetamide]",3010,78.1,1870,1210
"CC1CN(CCC#N)CCC1n1cnc2cnc3[nH]ccc3c21 (racemic) [Example 323, 3-[3-Methyl-4-(6H-1,3,5,6-tetraaza-as-indacen-1-yl)-piperidin-1-yl]-propionitrile]",6.77,0.81,1.77,7.81
"C[C@@H](O)c1nc2cnc3[nH]ccc3c2n1[C@H]1CCNC1 [Example 926, (R)-1-((S)-1-Pyrrolidin-3-yl-1,6-dihydro-1,3,5,6-tetraaza-as-indacen-2-yl)-ethanol]",1150,35.2,2470,1600
"O=C(CN1CCCCC1=O)N1CCC(n2cnc3cnc4[nH]ccc4c32)CC1 [Example 441, 1-{2-Oxo-2-[4-(6H-1,3,5,6-tetraaza-as-indacen-1-yl)-piperidin-1-yl]-ethyl}-piperidin-2-one]",1530,55.8,179,832
"Cc1nc2cnc3[nH]ccc3c2n1C1CCC(F)(F)CC1 [Example 114, 1-(4,4-Difluoro-cyclohexyl)-2-methyl-1,6-dihydro-1,2,3,5,6-tetraaza-as-indacene]",17,9.74,28.7,16.7
"CNc1nc2cnc3[nH]ccc3c2n1C1CCN(CC(F)(F)F)CC1 [Example 658, Methyl-{1-[1-(2,2,2-trifluoro-ethyl)-piperidin-4-yl]-1,6-dihydro-1,2,3,5,6-tetraaza-as-indacen-2-yl}-amine]",34.2,3.51,13.6,67.4
"CCN1CC[C@@H](n2c(C)nc3cnc4[nH]ccc4c32)[C@@H](F)C1 [Example 521, 1-((3S,4R)-1-Ethyl-3-fluoro-piperidin-4-yl)-2-methyl-1,6-dihydro-1,3,5,6-tetraaza-as-indacene]",25.4,3.48,7.04,48.8
"CN(CC(F)(F)F)C(=O)NC1CCC(n2nnc3cnc4[nH]ccc4c32)C1 (racemic) [Example 622, Racemic trans 1-Methyl-3-[3-(6H-1,2,3,5,6-pentaaza-as-indacen-1-yl)-cyclopentyl]-1-(2,2,2-trifluoro-ethyl)-urea]",19.5,9,12.4,233
"CC1(n2nnc3cnc4[nH]ccc4c32)CCN(S(=O)(=O)c2cccnc2)CC1 [Example 584, 1-[4-Methyl-1-(pyridine-3-sulfonyl)-piperidin-4-yl]-1,6-dihydro-1,2,3,5,6-pentaaza-as-indacene]",1320,37,105,454
"C[C@@H](O)c1nc2cnc3[nH]ccc3c2n1C1CCN(Cc2ncco2)CC1 [Example 923, (R)-1-[1-(1-Oxazol-2-ylmethyl-piperidin-4-yl)-1,6-dihydro-1,3,5,6-tetraaza-as-indacen-2-yl]-ethanol]",37.4,17.1,150,363
"OCCc1nc2cnc3[nH]ccc3c2n1[C@@H]1CCCNC1 [Example 16, 2-((R)-1-Piperidin-3-yl-1,6-dihydro-1,2,3,5,6-tetraaza-as-indacen-2-yl)ethanol]",1270,219,680,758
"c1cncc(CN2CCC(n3nnc4cnc5[nH]ccc5c43)CC2)c1 [Example 282, 1-(1-Pyridin-3-ylmethyl-piperidin4-yl)-1,6-dihydro-1,2,3,5,6-pentaaza-as-indacene]",48.1,7.53,12.1,260
"Cc1nc2cnc3[nH]ccc3c2n1C1CCN(Cc2cccnc2)CC1 [Example 283, 2-Methyl-1-(1-pyridin-3-ylmethyl-piperidin-4-yl)-1,6-dihydro-1,3,5,6-tetraaza-as-indacene]",2.63,0.84,1.93,50.2
CC(O)c1nc2cnc3[nH]ccc3c2n1C1CCNCC1 (racemic) [Example 291],731,10.2,854,339
"COC(=O)N(C)[C@H]1CC[C@H](n2c(CO)nc3cnc4[nH]ccc4c32)CC1 [Example 606, Trans[4-(2-hydroxymethyl-6H-1,2,3,5,6-tetraaza-as-indacen-1-yl)-cyclohexyl]-methyl-carbamic acid methyl ester]",455,28.8,65.2,112
"OCCOc1nc2cnc3[nH]ccc3c2n1C1CCCOC1 (racemic) [Example 780, 2-[1-(Tetrahydro-pyran-3-yl)-1,6-dihydro-1,3,5,6-tetraaza-as-indacen-2-yloxy]-ethanol]",74.2,15.8,41.2,109
"CCC(COC)n1cnc2cnc3[nH]ccc3c21 (racemic) [Example 419, 1-(1-Methoxymethyl-propyl)-1,6-dihydro-1,3,5,6-tetraaza-as-indacene]",160,144,198,812
"N#CCCN1CCC(n2c(COCc3ccc(F)c(F)c3)nc3cnc4[nH]ccc4c32)CC1 [Example 835, 3-{4-[2-(3,4-Difluoro-benzyloxymethyl)-6H-1,3,5,6-tetraaza-as-indacen-1-yl]-piperidin-1-yl}-propionitrile]",29.6,37.9,59.1,320
"CC1CN(CCC#N)CCC1n1cnc2cnc3[nH]ccc3c21 (racemic) [Example 324, 3-[3-Methyl-4-(6H-1,3,5,6-tetraaza-as-indacen-1-yl)-piperidin-1-yl]-propionitrile]",5.2,0.63,0.6,3.76
"CCOC(=O)NCCc1nc2cnc3[nH]ccc3c2n1C1CCN(CC)CC1(F)F (single isomer, unassigned) [Example 679, {2-[1-(1-Ethyl-3,3-difluoro-piperidin-4-yl)-1,6-dihydro-1,2,3,5,6-tetraaza-as-indacen-2-yl]-ethyl}-carbamic acid ethyl ester]",27.7,7.45,55.5,413
"CCS(=O)(=O)N1CCC(C)(n2cnc3cnc4[nH]ccc4c32)CC1 [Example 757, 1-(1-Ethanesulfonyl-4-methyl-piperidin-4-yl)-1,6-dihydro-1,3,5,6-tetraaza-as-indacene]",82.8,2.06,10,33.8
